For 35 molecules, IC50 results are on record in patent publication US9029531B2 (Agios Pharmaceuticals, Inc., priority 2012, dated 2015).

Each structure is given as a SMILES string. pIC50: −log10 of the molar value. Where only a bound is given, the exact number is not on record here.

For the assay, the target named is T1, glutaminase (GAC) (Homo sapiens, UniProt O94925).
T1 sequence (O94925 55-598 isoform O94925-3 limits assumed): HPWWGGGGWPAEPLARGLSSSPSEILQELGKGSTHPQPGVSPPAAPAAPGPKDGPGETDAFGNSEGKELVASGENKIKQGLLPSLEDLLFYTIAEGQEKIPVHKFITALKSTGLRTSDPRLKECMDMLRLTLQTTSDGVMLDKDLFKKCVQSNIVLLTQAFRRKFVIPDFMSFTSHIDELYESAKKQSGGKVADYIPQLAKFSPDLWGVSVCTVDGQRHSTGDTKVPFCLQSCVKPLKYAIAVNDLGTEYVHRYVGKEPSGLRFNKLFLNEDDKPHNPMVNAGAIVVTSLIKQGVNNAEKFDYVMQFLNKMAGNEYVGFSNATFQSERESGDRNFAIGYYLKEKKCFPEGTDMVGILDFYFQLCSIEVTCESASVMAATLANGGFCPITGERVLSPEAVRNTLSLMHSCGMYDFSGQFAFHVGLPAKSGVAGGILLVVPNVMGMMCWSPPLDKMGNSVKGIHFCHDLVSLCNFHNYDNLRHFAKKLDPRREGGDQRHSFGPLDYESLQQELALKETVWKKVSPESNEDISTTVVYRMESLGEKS
Description: Glutaminase coupled endpoint enzymatic assay (Example A). The format is biochemical. To be noted: inhibition of glutaminase; assay of Example A or Example B. An excerpt: In certain embodiments, exemplary compounds of Formula I include the compounds described in Table 1 and in the Examples. A compound described herein may be tested for its ability to inhibit glutaminase, e.g., by an assay as described in the Examples. For simplicity, the inhibition activity of these compounds is represented as an IC50 tested in an assay of Example A or Example B in Table 1. […] “N/A” refers to compounds wherein the IC50 is unavailable.
In this example, the enzymatic activity of glutaminase is measured through a coupled endpoint assay. Glutamine and phosphate are supplied to GAC at a concentration equal to Km and AC50, respectively, and GAC concentration is adjusted to give a linear reaction for 60 minutes. The glutamate produced is converted to 2-OG by a kinetic excess of glutamate dehydrogenase. This second step is configured for 2×Km for NAD, since excess NAD is inhibitory. However, a kinetic excess of the third coupling enzyme, diaphorase, recycles NAD from NADH to keep the NAD concentration constant during the timecourse of the assay. Diaphorase, also supplied in kinetic excess, oxidizes NADH produced by GDH back to NAD with the concomitant reduction of rezasurin to the highly fluorescent resorufin. Resorufin in measured after the assay is stopped with SDS by Ex544/Em590. A reduction in the signal indicates inhibition of some component of the coupled enzyme system. Prospective hits are counterscreened against GDH/diaphorase alone to remove hits to the coupling enzyme system in a second assay.
2. Buffers • 2× Buffer (300 mM NaCl, 100 mM HEPES pH 8.5, 0.1% BSA, 0.5 mM EDTA, 100 mM sodium phosphate pH 8.5) • 5× Substrate Mix (1× Buffer final concentration, with 13 mM glutamine, 100 μM resazurin, 50 μg/ml diaphorase) • 1.2× Enzyme Mix (1× Buffer final concentration, with 0.875 μg/ml GAC, 1.56 mM NAD, 6.25 units/ml GDH) • Stop Mix (6% SDS in ddH2O) Reaction Procedure • 1. Add 1 μl compound in 100% DMSO • 2. Add 40 μl of Enzyme Mix and incubate for 60 minute at room temperature • 3. Add 10 μl of Substrate Mix to start reaction • 4. Stop reaction with 25 μl of 6% SDS and read Ex544 Em 590

The pIC50 is the negative decadic logarithm of the IC50, by convention in mol/L. Read a high pIC50 as a low IC50. For `O=C(Cc1ccccn1)Nc1nnc([C@@H]2CC[C@@H](c3nnc(NC(=O)Cc4ccccn4)s3)C2)s1` [Compound 33], the pIC50 is greater than 7.00. As to `O=C(Cc1ccccc1)Nc1nnc(C2CCCC(c3nnc(NC(=O)Cc4ccccc4)s3)C2)s1` (centres unmarked) [Compound 36], the pIC50 was 5.70 to 6.00. To `CC(C)C(=O)Nc1nnc([C@@H]2CCC[C@@H](c3nnc(NC(=O)C(C)C)s3)C2)s1` [Compound 38] belongs 6.30 to 7.00; to `Nc1ccccc1CC(=O)Nc1nnc([C@H]2CCC[C@H](c3nnc(NC(=O)Cc4ccccc4N)s3)C2)s1` [Compound 56, N,N′-(5,5′-((1S,3S)-cyclohexane-1,3-diyl)bis(1,3,4-thiadiazole-5,2-diyl))bis(2-(2-aminophenyl)acetamide)], greater than 7.00. For the molecule `O=C(Cc1ccccc1[N+](=O)[O-])Nc1nnc([C@H]2CCC[C@H](c3nnc(NC(=O)Cc4ccccc4[N+](=O)[O-])s3)C2)s1` [Compound 57, N,N′-(5,5′-((1S,3S)-cyclohexane-1,3-diyl)bis(1,3,4-thiadiazole-5,2-diyl))bis(2-(2-nitrophenyl)acetamide)], the pIC50 was 6.30 to 7.00. To `Nc1nnc([C@@H]2CCC[C@@H](c3nnc(NC(=O)Cc4ccccn4)s3)C2)s1` [Compound 58] belongs 5.70 to 6.00; to `O=C(Cc1cccs1)Nc1nnc([C@H]2CCC[C@H](c3nnc(NC(=O)Cc4cccs4)s3)C2)s1` [Compound 59, N,N′-(5,5′-((1S,3S)-cyclohexane-1,3-diyl)bis(1,3,4-thiadiazole-5,2-diyl))bis(2-(thiophen-2-yl)acetamide)], greater than 7.00; to `CSCC(=O)Nc1nnc([C@H]2CCC[C@H](c3nnc(NC(=O)CSC)s3)C2)s1` [Compound 60, N,N′-(5,5′-((1S,3S)-cyclohexane-1,3-diyl)bis(1,3,4-thiadiazole-5,2-diyl))bis(2-(methylthio)acetamide)], 6.00 to 6.30. Turning to `COc1ccccc1CC(=O)Nc1nnc(C2CCC(c3nnc(NC(=O)Cc4ccccc4OC)s3)C2)s1` (centres unmarked) [Compound 67], the pIC50 was 6.30 to 7.00.

Regarding `COc1cccc(CC(=O)Nc2nnc(C3CCC(c4nnc(NC(=O)Cc5cccc(OC)c5)s4)C3)s2)c1` (centres unmarked) [Compound 68], the pIC50 was 6.30 to 7.00. `COc1ccccc1CC(=O)Nc1nnc([C@H]2CCC[C@H](c3nnc(NC(=O)Cc4ccccn4)s3)C2)s1` [Compound 79, 2-(2-methoxyphenyl)-N-(5-((1S,3S)-3-(5-(2-(pyridin-2-yl)acetamido)-1,3,4-thiadiazol-2-yl)cyclohexyl)-1,3,4-thiadiazol-2-yl)acetamide] had a negative logarithm of the IC50 (pIC50) greater than 7.00. On to `COc1cccc(CC(=O)Nc2nnc([C@H]3CCC[C@H](c4nnc(NC(=O)Cc5ccccn5)s4)C3)s2)c1` [Compound 81, 2-(3-methoxyphenyl)-N-(5-((1S,3S)-3-(5-(2-(pyridin-2-yl)acetamido)-1,3,4-thiadiazol-2-yl)cyclohexyl)-1,3,4-thiadiazol-2-yl)acetamide], for which the pIC50 is greater than 7.00. To `COc1cccc(CC(=O)Nc2nnc([C@H]3CCC[C@H](c4nnc(NC(C)=O)s4)C3)s2)c1` [Compound 90, N-(5-((1S,3S)-3-(5-acetamido-1,3,4-thiadiazol-2-yl)cyclohexyl)-1,3,4-thiadiazol-2-yl)-2-(3-methoxyphenyl)acetamide] belongs 6.30 to 7.00; to `CC(=O)Nc1nnc([C@H]2CCC[C@H](c3nnc(NC(=O)Cc4ccccn4)s3)C2)s1` [Compound 93, N-(5-((1S,3S)-3-(5-acetamido-1,3,4-thiadiazol-2-yl)cyclohexyl)-1,3,4-thiadiazol-2-yl)-2-(pyridin-2-yl)acetamide], greater than 7.00; to `COc1ccccc1CC(=O)Nc1nnc([C@H]2CCC[C@H](c3nnc(NC(C)=O)s3)C2)s1` [Compound 94, N-(5-((1S,3S)-3-(5-acetamido-1,3,4-thiadiazol-2-yl)cyclohexyl)-1,3,4-thiadiazol-2-yl)-2-(2-methoxyphenyl)acetamide], greater than 7.00. `N#Cc1ccccc1CC(=O)Nc1nnc(C2CCC(c3nnc(NC(=O)Cc4ccccc4C#N)s3)C2)s1` (centres unmarked) [Compound 95] showed a pIC50 of 6.30 to 7.00.

The molecule `N#Cc1ccc(CC(=O)Nc2nnc(C3CCC(c4nnc(NC(=O)Cc5ccc(C#N)cc5)s4)C3)s2)cc1` (centres unmarked) [Compound 96] had a pIC50 of 6.30 to 7.00. `N#Cc1cccc(CC(=O)Nc2nnc(C3CCC(c4nnc(NC(=O)Cc5cccc(C#N)c5)s4)C3)s2)c1` (centres unmarked) [Compound 97]: the pIC50 is 6.30 to 7.00.

Regarding `O=C(Cc1ccccn1)Nc1nnc([C@@H]2CCC[C@H](c3nnc(NC(=O)Cc4ccccn4)s3)C2)s1` [Compound 102], the pIC50 was 6.30 to 7.00. The molecule `O=C(Cc1cccnc1)Nc1nnc(C2CCC(c3nnc(NC(=O)Cc4cccnc4)s3)C2)s1` (centres unmarked) [Compound 103] showed a negative-log IC50 (pIC50) of 6.30 to 7.00. For the molecule `COc1cccc(CC(=O)Nc2nnc([C@@H]3CC[C@H](c4nnc(NC(=O)Cc5cccc(OC)c5)s4)C3)s2)c1` [Compound 107], the pIC50 was 6.30 to 7.00.

Take `COc1cccc(CC(=O)Nc2nnc([C@@H]3CC[C@@H](c4nnc(NC(=O)Cc5cccc(OC)c5)s4)C3)s2)c1` [Compound 108]: the negative logarithm of the IC50 (pIC50) is greater than 7.00.

In the case of `COc1ccc(CC(=O)Nc2nnc(C3CCC(c4nnc(NC(=O)Cc5ccc(OC)cc5)s4)C3)s2)cc1` (centres unmarked) [Compound 109], the pIC50 is 6.30 to 7.00.

In turn, `O=C(Cc1cccc([N+](=O)[O-])c1)Nc1nnc(C2CCC(c3nnc(NC(=O)Sc4cccc([N+](=O)[O-])c4)s3)C2)s1` (centres unmarked) [Compound 110] had a pIC50 of 6.30 to 7.00. `COc1ccccc1CC(=O)Nc1nnc([C@@H]2CC[C@@H](c3nnc(NC(=O)Cc4ccccc4OC)s3)C2)s1` [Compound 117] gave a pIC50 of 6.00 to 6.30. `O=C(Cc1cccc(Br)n1)Nc1nnc([C@H]2CCC[C@H](c3nnc(NC(=O)Cc4cccc(Br)n4)s3)C2)s1` [Compound 118, N,N′-(5,5′-((1S,3S)-cyclohexane-1,3-diyl)bis(1,3,4-thiadiazole-5,2-diyl))bis(2-(6-bromopyridin-2-yl)acetamide)] gave a pIC50 greater than 7.00. For `COc1ccnc(CC(=O)Nc2nnc([C@@H]3CCC[C@@H](c4nnc(NC(=O)Cc5cc(OC)ccn5)s4)C3)s2)c1` [Compound 119], the pIC50 was greater than 7.00.

Turning to `COc1cccc(CC(=O)Nc2nnc(C3CCCCC(c4nnc(NC(=O)Cc5cccc(OC)c5)s4)C3)s2)c1` (centres unmarked) [Compound 120], the pIC50 was 6.00 to 6.30. The molecule `COc1ccc(CC(=O)Nc2nnc(C3CCCCC(c4nnc(NC(=O)Cc5ccc(OC)cc5)s4)C3)s2)cc1` (centres unmarked) [Compound 121] showed a pIC50 of 5.70 to 6.00.

In the case of `O=C(Cc1ccccn1)Nc1nnc(C2CCCCC(c3nnc(NC(=O)Cc4ccccn4)s3)C2)s1` (centres unmarked) [Compound 122], the pIC50 was 5.70 to 6.00. `COc1ccccc1CC(=O)Nc1nnc(C2CCCCC(c3nnc(NC(=O)Cc4ccccc4OC)s3)C2)s1` (centres unmarked) [Compound 123] gave a pIC50 of 5.70 to 6.00.

With `N#Cc1cccc(CC(=O)Nc2nnc(C3CCCCC(c4nnc(NC(=O)Cc5cccc(C#N)c5)s4)C3)s2)c1` (centres unmarked) [Compound 124], the negative-log IC50 (pIC50) was 5.70 to 6.00. Molecule `COc1ccccc1CC(=O)Nc1nnc([C@@H]2CCCC[C@H](c3nnc(NC(=O)Cc4ccccc4OC)s3)C2)s1` [Compound 125] had a negative logarithm of the IC50 (pIC50) of 5.70 to 6.00. Molecule `O=C(Cc1cccnc1)Nc1nnc(C2CCCCC(c3nnc(NC(=O)Cc4cccnc4)s3)C2)s1` (centres unmarked) [Compound 126] showed a pIC50 of 6.30 to 7.00. As to `N#Cc1ccccc1CC(=O)Nc1nnc(C2CCCCC(c3nnc(NC(=O)Cc4ccccc4C#N)s3)C2)s1` (centres unmarked) [Compound 127], the pIC50 is 6.00 to 6.30.
